Results taken from patent US20220273596A1, “SYNERGISTIC COMBINATION OF S-KETOROLAC AND PREGABALIN IN A PHARMACEUTICAL COMPOSITION FOR THE TREATMENT OF NEUROPATHIC PAIN” (priority 2019, published 2022).

What was measured:
[1] = tested on: cold allodynia in rats with chronic constriction injury (CCI) of the sciatic nerve; test: Acetone test (cold allodynia) in rats with chronic constriction injury of the sciatic nerve (Bennett and Xie model); format: in vivo, Male Wistar rats; conditions: for anti-allodynic effect: oral, temporal course 0-180 min; for dose dependence of anti-allodynic effects: given orally, alone; for Anti-allodynic efficacy: Maximal efficacy (AUC: X ± SE): most efficacious dose po: Pregabalin 31.6 mg/Kg, S-ketorolac 1.0 mg/Kg, AUC of 180-min temporal course, maximum possible 300 au, n=6; for maximal anti-allodynic effect (AUC): pregabalin 31.6 mg/Kg po, S-Ket 1.0 mg/Kg po, 180-min temporal course; for Anti-allodynic efficacy: Relative efficacy: relative to pregabalin, Pregabalin 31.6 mg/Kg po, S-ketorolac 1.0 mg/Kg po
Protocol: (§1) Male Wistar rats were used in the experiments. […] The animals were kept in polycarbonate cages under controlled temperature and light conditions, with 12-hour light/darkness cycles and free access to food and water. All experiments were performed during the light phase of the light/darkness cycles. The animals were used and handled according to the international guidelines on Ethical Standards for Investigations of Experimental Pain established by the Committee for Research and Ethical Issues of the International Association for the Study of Pain. The number of experiment animals was kept to a minimum (n=6), and at the end of the experimental assessments the animals were sacrificed using carbon dioxide.
(§2) Immediately after the rats were anesthetized, their right hind limb sciatic nerves were dissected through an incision, in which the biceps femoris muscle was dissected for locating the most proximal site to the trifurcation of the sciatic nerve, and to apply four loose ligations with silk thread.
(§3) Once the surgery was finished, the muscle was sutured with absorbable thread, and the skin was sutured with silk thread. Sham surgery in rats was performed likewise, although without ligating the sciatic nerve. All procedures were performed under aseptic conditions. The degree of hyperalgesia and allodynia in rats subjected to sciatic nerve surgery was determined using the Von Frey test (mechanical hyperalgesia) and the acetone test (cold allodynia).
The acetone test (cold allodynia) was performed and assessed as follows: Once the Von Frey test was finished, rats were left to rest over the metallic mesh, and after a 5-10 minute period, 0.1 mL of acetone was applied on the sole callosities of the right hindlimb with a syringe with a flexible plastic point from under the mesh. Then, a chronometer recorded the time in seconds in which the animals kept the hindlimb away from the mesh during the first 60 seconds after being exposed to acetone. The response time of the right hindlimb was measured. Three measurements were made (1 measurement every 2 minutes).
(§4) In a first stage, the experimental design of the groups and the experiments were performed as follows: • a) Several groups of 6 animals with neuropathic pain (sciatic nerve ligation) were formed.
All combinations to be assessed were designed. It was decided to evaluate combinations with 24 different proportions, to have the fullest possible notion of the interaction of these 2 analgesics, and for obtaining and determining the optimal combinations in terms of efficacy and anti-allodynic potentiation.

[2] = tested on: mechanical hyperalgesia in rats with chronic constriction injury (CCI) of the sciatic nerve; test: Von Frey test (mechanical hyperalgesia, 15-gram filament) in rats with chronic constriction injury of the sciatic nerve; format: in vivo, Male Wistar rats; conditions: for dose dependence of anti-hyperalgesic effects: given orally, alone; for Antihyperalgesic efficacy: Maximal efficacy (AUC: X ± SE): most efficacious dose po: Pregabalin 31.6 mg/Kg, S-ketorolac 3.16 mg/Kg, AUC of 180-min temporal course, n=6; for maximal antihyperalgesic effect (AUC): pregabalin 31.6 mg/Kg po, S-Ket 3.16 mg/Kg po; for Antihyperalgesic efficacy: Relative efficacy: relative to pregabalin, Pregabalin 31.6 mg/Kg po, S-ketorolac 3.16 mg/Kg po
Protocol: as §1, §2, §3
Von Frey test (mechanic hyperalgesia). Rats were placed over a metallic mesh in a clear acrylic box and remained in the box at least 10 minutes before the test, in order to allow the rats to adapt to the environment. The response was determined by means of a tactile stimulus on the sole callosities of the right hindlimb with the 15-gram Von Frey filament. Ten stimuli were applied (one stimulus approximately every 3 seconds), and the response percentage was obtained (% response=number of responses/10 ×100).
as §4
It was decided to base assessments on 6 doses of the pregabalin DRCs (0.0316, 0.1, 0.316, 1.0, 3.16 and 10 mg/Kg) and to combine them with 4 different S-ketorolac doses (0.0316, 0.10, 0.316 and 1.0 mg/Kg p.o.).

[3] = pregabalin 10.0 mg/Kg po alone, reached 3 h after administration

O=C(c1ccccc1)c1ccc2n1CCC2C(=O)O (centres unmarked) [S-ketorolac, 5-Benzoyl-2,3-dihydro-1H-pyrrolizine-1-carboxylic acid]
anti-allodynic effect ([1]; 0.0316 mg/Kg dose): almost no anti-allodynic effect
anti-allodynic effect ([1]; 1.0 mg/Kg dose): significant anti-allodynic effect
anti-allodynic Emax ([1]; S-ketorolac 0.316 mg/Kg po alone, reached 30 minutes after administration): 44.0±7.7%
anti-allodynic efficacy as percent of that induced by oral pregabalin ([1]; S-ketorolac 1.0 mg/Kg po vs pregabalin 31.6 mg/Kg po): 46%
dose dependence of anti-allodynic effects [1]: dose-dependent anti-allodynic effects
Anti-allodynic efficacy: Maximal efficacy (AUC: X ± SE) [1]: 111.2 ± 20.3
maximal anti-allodynic effect (AUC) [1]: 111.2±20.3 ua
Anti-allodynic efficacy: Relative efficacy [1]: 0.46
antihyperalgesic effect ([2]; S-ketorolac 1.0 mg/Kg po alone): little antihyperalgesic effect
antihyperalgesic Emax ([2]; S-ketorolac 1.0 mg/Kg po alone, reached 60 minutes after administration): 40.0±5.8%
antihyperalgesic efficacy as percent of that delivered by pregabalin ([2]; S-ketorolac 3.16 mg/Kg po vs pregabalin 31.6 mg/Kg po): 51%
dose dependence of anti-hyperalgesic effects [2]: dose-dependent anti-hyperalgesic effects
Antihyperalgesic efficacy: Maximal efficacy (AUC: X ± SE) [2]: 112.5 ± 3.5
maximal antihyperalgesic effect (AUC) [2]: 112.5±3.5 ua
Antihyperalgesic efficacy: Relative efficacy [2]: 0.51

CC(C)C[C@H](CN)CC(=O)O [Pregabalin, (3S)-3-(aminomethyl)-5-methylhexanoic acid]
anti-allodynic effect ([1]; 0.0316 mg/Kg dose): almost no anti-allodynic effect
anti-allodynic effect ([1]; 31.6 mg/Kg dose): significant anti-allodynic effect
dose dependence of anti-allodynic effects [1]: dose-dependent anti-allodynic effects
Anti-allodynic efficacy: Maximal efficacy (AUC: X ± SE) [1]: 241.6 ± 9.5
anti-allodynic Emax [1, 3]: 83.4±3.7%
maximal anti-allodynic effect (AUC) [1]: 241.6±9.5 ua
Anti-allodynic efficacy: Relative efficacy [1]: 1.0
dose dependence of anti-hyperalgesic effects [2]: dose-dependent anti-hyperalgesic effects
more anti-hyperalgesia than S-ketorolac ([2]; most effective oral doses given alone): 49%
Antihyperalgesic efficacy: Maximal efficacy (AUC: X ± SE) [2]: 220.4 ± 12.3
antihyperalgesic effect ([2]; pregabalin 0.316 mg/Kg po alone, over the assessment period): practically no antihyperalgesic effects
antihyperalgesic Emax [2, 3]: 78.3±5.4%
maximal antihyperalgesic effect (AUC) [2]: 220.4±12.3 ua
Antihyperalgesic efficacy: Relative efficacy [2]: 1.0
